Experimental data published in PubChem BioAssay AID330 (DTP/NCI, 2004).
Values joined by “and” are separate entries in the source; they are usually repeats but may differ in a detail not shown here. Equal values may be shown once. Toxic doses and inconclusive results are not listed.

Test system: P388 leukemia ip, CD2F1 mice, survival T/C
Experiment: NCI In Vivo Anticancer Drug Screen. Data for tumor model P388 Leukemia (intraperitoneal) in CD2F1 (CDF1) mice
Conditions: endpoint: median survival time, higher = longer survival
Method in brief: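 Mice carrying the transplanted tumor received test compound or vehicle. Survival was recorded in each group, and the value is the treated-group measurement divided by that of the vehicle-treated control group.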

[1] = dose: 50.0 mg/kg/injection, schedule: Q01DX009 (ip), vehicle: Klucel (hydroxypropylcellulose) (HPC)
[2] = dose: 100.0 mg/kg/injection, schedule: Q01DX009 (ip), vehicle: Klucel (hydroxypropylcellulose) (HPC)
[3] = dose: 200.0 mg/kg/injection, schedule: Q01DX009 (ip), vehicle: Klucel (hydroxypropylcellulose) (HPC)
[4] = dose: 25.0 mg/kg/injection, schedule: Q01DX009 (ip), vehicle: saline
[5] = dose: 50.0 mg/kg/injection, schedule: Q01DX009 (ip), vehicle: saline
[6] = dose: 50.0 mg/kg/injection, schedule: Q01DX005 (ip), vehicle: saline with Tween-80
[7] = dose: 100.0 mg/kg/injection, schedule: Q01DX005 (ip), vehicle: saline with Tween-80
[8] = dose: 200.0 mg/kg/injection, schedule: Q01DX005 (ip), vehicle: saline with Tween-80
[9] = dose: 6.25 mg/kg/injection, schedule: Q01DX005 (ip), vehicle: saline with Tween-80
[10] = dose: 12.5 mg/kg/injection, schedule: Q01DX005 (ip), vehicle: saline with Tween-80
[11] = dose: 60.0 mg/kg/injection, schedule: Q01DX005 (ip), vehicle: saline with Tween-80
[12] = dose: 50.0 mg/kg/injection, schedule: Q01DX005 (ip), vehicle: Klucel (hydroxypropylcellulose) (HPC)
[13] = dose: 100.0 mg/kg/injection, schedule: Q01DX005 (ip), vehicle: Klucel (hydroxypropylcellulose) (HPC)
[14] = dose: 200.0 mg/kg/injection, schedule: Q01DX005 (ip), vehicle: Klucel (hydroxypropylcellulose) (HPC)
[15] = dose: 50.0 mg/kg/injection, schedule: Q01DX009 (ip), vehicle: saline with Tween-80
[16] = dose: 100.0 mg/kg/injection, schedule: Q01DX009 (ip), vehicle: saline with Tween-80
[17] = dose: 100.0 mg/kg/injection, schedule: Q04DX002 (ip), vehicle: Klucel (hydroxypropylcellulose) (HPC)
[18] = dose: 200.0 mg/kg/injection, schedule: Q04DX002 (ip), vehicle: Klucel (hydroxypropylcellulose) (HPC)
[19] = dose: 400.0 mg/kg/injection, schedule: Q04DX002 (ip), vehicle: Klucel (hydroxypropylcellulose) (HPC)
[20] = dose: 120.0 mg/kg/injection, schedule: Q01DX005 (ip), vehicle: saline with Tween-80
[21] = dose: 25.0 mg/kg/injection, schedule: Q01DX005 (ip), vehicle: saline with Tween-80

## C=CCn1c(Br)nc2c1c(=O)n(CC)c(=O)n2CC
dose: 16.0 mg/kg/injection, schedule: Q01DX009 (ip), vehicle: Klucel (hydroxypropylcellulose) (HPC)
  T/C: 107 % of control
dose: 32.0 mg/kg/injection, schedule: Q01DX009 (ip), vehicle: Klucel (hydroxypropylcellulose) (HPC)
  T/C: 107 % of control
[1]
  T/C: 89 % of control
dose: 64.0 mg/kg/injection, schedule: Q01DX009 (ip), vehicle: Klucel (hydroxypropylcellulose) (HPC)
  T/C: 93 % of control
[2]
  T/C: 91 % of control
[3]
  T/C: 94 % of control

## C1CCN(CCCCN2CCCCC2)CC1
[4]
  T/C: 93 % of control
[5]
  T/C: 88 % of control

## CC(=O)OC1CC(C)(O)Cc2cc3c(c(O)c21)C(=O)c1c(O)cc2c(c1C3=O)OC1OC2(C)C(O)C(N(C)C)C1O (stereo not drawn)
dose: 3.5 mg/kg/injection, schedule: Q01DX009 (ip), vehicle: other
  T/C: 153 % of control
dose: 7.0 mg/kg/injection, schedule: Q01DX009 (ip), vehicle: other
  T/C: 166 % of control
dose: 14.0 mg/kg/injection, schedule: Q01DX009 (ip), vehicle: other
  T/C: 167 % of control

## Cc1nn(-c2ccccc2)c2c1S(=O)(=O)c1ccccc1-2
[6]
  T/C: 91 % of control
[7]
  T/C: 89 % of control
[8]
  T/C: 88 % of control

## Clc1cc(Cl)c2c(c1)[nH]c1nc3ccccc3nc12
[9]
  T/C: 101 % of control
[10]
  T/C: 90 % of control
[6]
  T/C: 96 % of control
[7]
  T/C: 100 % of control
[8]
  T/C: 104 % of control

## Cc1ccc(-n2c(CSc3ccc(Cl)cc3)nnc2SCc2nc3ccccc3[nH]2)cc1
dose: 15.0 mg/kg/injection, schedule: Q01DX005 (ip), vehicle: saline with Tween-80
  T/C: 92 % of control
dose: 30.0 mg/kg/injection, schedule: Q01DX005 (ip), vehicle: saline with Tween-80
  T/C: 102 % of control
[11]
  T/C: 96 % of control and 98 % of control

## O=C1CC(=O)NP(=O)(Oc2ccccc2)N1
dose: 100.0 mg/kg/injection, schedule: Q04DX002 (ip), vehicle: saline
  T/C: 103 % of control
dose: 200.0 mg/kg/injection, schedule: Q04DX002 (ip), vehicle: saline
  T/C: 100 % of control

## COc1cc2c(c(OC)c1OC)-c1cc3c(cc1[C@@H](OC(C)=O)[C@@H]1COC(=O)[C@H]1C2)OCO3
dose: 1.25 mg/kg/injection, schedule: Q01DX009 (ip), vehicle: Klucel (hydroxypropylcellulose) (HPC)
  T/C: 100 % of control
dose: 2.5 mg/kg/injection, schedule: Q01DX009 (ip), vehicle: Klucel (hydroxypropylcellulose) (HPC)
  T/C: 111 % of control
dose: 5.0 mg/kg/injection, schedule: Q01DX009 (ip), vehicle: Klucel (hydroxypropylcellulose) (HPC)
  T/C: 95 % of control
dose: 10.0 mg/kg/injection, schedule: Q01DX009 (ip), vehicle: Klucel (hydroxypropylcellulose) (HPC)
  T/C: 97 % of control

## CC(=O)C1(C)Nc2cccc3cccc(c23)N1
[12]
  T/C: 100 % of control
[13]
  T/C: 96 % of control
[14]
  T/C: 101 % of control

## CCOc1n[n+]([O-])c(Cl)cc1[N+](=O)[O-]
dose: 25.0 mg/kg/injection, schedule: Q01DX009 (ip), vehicle: saline with Tween-80
  T/C: 103 % of control
[15]
  T/C: 102 % of control
[16]
  T/C: 100 % of control

## c1ccc2[nH]c(-c3nc4ccccc4s3)cc2c1
[1]
  T/C: 106 % of control
[2]
  T/C: 108 % of control
[3]
  T/C: 98 % of control

## CC(=O)OC1C=CC(SC23CC4CC(CC(C4)C2)C3)N(C(C)=O)C1SC12CC3CC(CC(C3)C1)C2 (stereo not drawn)
[1]
  T/C: 103 % of control
[2]
  T/C: 105 % of control
[3]
  T/C: 99 % of control

## CCCC(=O)NNC(=O)c1ccccn1
dose: 25.0 mg/kg/injection, schedule: Q01DX009 (ip), vehicle: saline sonified
  T/C: 90 % of control
dose: 50.0 mg/kg/injection, schedule: Q01DX009 (ip), vehicle: saline sonified
  T/C: 95 % of control
dose: 100.0 mg/kg/injection, schedule: Q01DX009 (ip), vehicle: saline sonified
  T/C: 100 % of control

## N#CC1(Nc2ccccc2)CCCC1
dose: 3.13 mg/kg/injection, schedule: Q01DX009 (ip), vehicle: Klucel (hydroxypropylcellulose) (HPC)
  T/C: 104 % of control
dose: 6.25 mg/kg/injection, schedule: Q01DX009 (ip), vehicle: Klucel (hydroxypropylcellulose) (HPC)
  T/C: 104 % of control and 92 % of control and 96 % of control
dose: 12.5 mg/kg/injection, schedule: Q01DX009 (ip), vehicle: Klucel (hydroxypropylcellulose) (HPC)
  T/C: 100 % of control and 90 % of control and 98 % of control
dose: 25.0 mg/kg/injection, schedule: Q01DX009 (ip), vehicle: Klucel (hydroxypropylcellulose) (HPC)
  T/C: 100 % of control and 96 % of control
[1]
  T/C: 104 % of control

## O=C(O)c1ccccc1C(=O)O.[Cu+2].[NH-]CCC[NH-]
dose: 12.5 mg/kg/injection, schedule: Q04DX002 (ip), vehicle: saline with Tween-80
  T/C: 115 % of control

## C/C(=N/NC(=O)c1ccccc1)C(=O)OC(=NC1CCCCC1)NC1CCCCC1
[17]
  T/C: 99 % of control
[18]
  T/C: 95 % of control
[19]
  T/C: 96 % of control

## CCC(C)C(NC(=O)c1ccccc1)C(=O)O (stereo not drawn)
[6]
  T/C: 90 % of control
[7]
  T/C: 106 % of control
[8]
  T/C: 97 % of control

## CCCCOc1ncnc2nc[nH]c12
[12]
  T/C: 103 % of control
[13]
  T/C: 103 % of control

## COc1ccccc1OCC1CCC(=O)O1 (stereo not drawn)
[17]
  T/C: 95 % of control
[18]
  T/C: 103 % of control
[19]
  T/C: 101 % of control

## C[CH2][Sn]([CH2]C)[S]CC(N)C(=O)O (stereo not drawn)
dose: 3.75 mg/kg/injection, schedule: Q01DX005 (ip), vehicle: Klucel (hydroxypropylcellulose) (HPC)
  T/C: 110 % of control
dose: 7.5 mg/kg/injection, schedule: Q01DX005 (ip), vehicle: Klucel (hydroxypropylcellulose) (HPC)
  T/C: 120 % of control

## CC(=O)Nc1ncnc2c(C3OC(COC(C)=O)C(OC(C)=O)C3OC(C)=O)[nH]nc12 (stereo not drawn)
[11]
  T/C: 105 % of control
[20]
  T/C: 95 % of control

## COc1ccc(OCCCBr)c(Br)c1
[12]
  T/C: 101 % of control
[13]
  T/C: 97 % of control
[14]
  T/C: 104 % of control

## Nc1cc(=O)n2cn[nH]c2n1
dose: 100.0 mg/kg/injection, schedule: Q04DX002 (ip), vehicle: saline with Tween-80
  T/C: 100 % of control
dose: 200.0 mg/kg/injection, schedule: Q04DX002 (ip), vehicle: saline with Tween-80
  T/C: 103 % of control
dose: 400.0 mg/kg/injection, schedule: Q04DX002 (ip), vehicle: saline with Tween-80
  T/C: 103 % of control

## CCCOc1cncc(C)n1
dose: 12.5 mg/kg/injection, schedule: Q01DX009 (ip), vehicle: saline
  T/C: 95 % of control
[4]
  T/C: 87 % of control
[5]
  T/C: 101 % of control and 97 % of control

## CC(C)SC(=S)Nc1cc(C(F)(F)F)ccc1Cl
[5]
  T/C: 100 % of control
dose: 100.0 mg/kg/injection, schedule: Q01DX009 (ip), vehicle: saline
  T/C: 101 % of control
dose: 200.0 mg/kg/injection, schedule: Q01DX009 (ip), vehicle: saline
  T/C: 99 % of control

## C/C(=N\NC(=S)Nc1ccc(N(C)C)cc1)c1ccccn1
[15]
  T/C: 118 % of control
[16]
  T/C: 105 % of control

## NC(=O)c1[nH]c(=O)[nH]c(=O)c1CSc1ccc(Cl)cc1
[9]
  T/C: 99 % of control
[10]
  T/C: 97 % of control
[21]
  T/C: 107 % of control
[6]
  T/C: 109 % of control
[7]
  T/C: 111 % of control

## CCOC(=O)N1CCN(C(=S)NNC(C)c2cccc[n+]2[O-])CC1 (stereo not drawn)
[6]
  T/C: 99 % of control
[7]
  T/C: 100 % of control

## CCCCCCCCCCCCCC[N+]1(CC)CCCCCC1
dose: 0.04 mg/kg/injection, schedule: Q01DX009 (ip), vehicle: saline
  T/C: 100 % of control and 96 % of control

## O=C([O-])c1ccccc1[O-].[Cu+2].c1cnc2c(c1)ccc1cccnc12
[17]
  T/C: 109 % of control

## O=c1oc2ccc3ccccc3c2cc1-n1nnc2ccccc21
[11]
  T/C: 91 % of control
[20]
  T/C: 90 % of control

## O=C1OC(c2ccccc2)(c2ccccc2)CC1C=C(c1ccccc1)c1ccccc1 (stereo not drawn)
[21]
  T/C: 92 % of control
[6]
  T/C: 89 % of control and 94 % of control
[7]
  T/C: 89 % of control

## CCOC(=O)C(=O)c1ccc(N(C)C)cc1
[2]
  T/C: 107 % of control
[3]
  T/C: 100 % of control
dose: 400.0 mg/kg/injection, schedule: Q01DX009 (ip), vehicle: Klucel (hydroxypropylcellulose) (HPC)
  T/C: 97 % of control

## CCOC(=O)c1ccc(NC(CCC(C#N)(CCC(=NC(C)(C)C)Nc2ccc(C(=O)OCC)cc2)C(=O)OCC)=NC(C)(C)C)cc1 (stereo not drawn)
[15]
  T/C: 95 % of control
[16]
  T/C: 95 % of control
dose: 200.0 mg/kg/injection, schedule: Q01DX009 (ip), vehicle: saline with Tween-80
  T/C: 95 % of control
